Laboratory results reported in PubChem BioAssay (NCI).
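The compound was tested at five concentrations on cells cultured in 96-well plates, with a 48-hour exposure period. TGI: concentration producing complete growth inhibition.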

How the values were obtained:
Assay in all cases: growth of human tumour cells (NCI), 48 h
786-0 renal = tested on: 786-0 renal
A498 renal = tested on: A498 renal
A549 NSCLC = tested on: A549 NSCLC
ACHN renal = tested on: ACHN renal
CAKI-1 renal = tested on: CAKI-1 renal
CCRF-CEM leukemia = tested on: CCRF-CEM leukemia
COLO 205 colon = tested on: COLO 205 colon
DLD-1 colon = tested on: DLD-1 colon
DMS 273 small cell lung = tested on: DMS 273 small cell lung
EKVX NSCLC = tested on: EKVX NSCLC
HCC-2998 colon = tested on: HCC-2998 colon
HCT-15 colon = tested on: HCT-15 colon
HL-60(TB) leukemia = tested on: HL-60(TB) leukemia
HOP-18 NSCLC = tested on: HOP-18 NSCLC
HOP-62 NSCLC = tested on: HOP-62 NSCLC
HOP-92 NSCLC = tested on: HOP-92 NSCLC
HT29 colon = tested on: HT29 colon
IGROV1 ovarian = tested on: IGROV1 ovarian
K-562 leukemia = tested on: K-562 leukemia
KM12 colon = tested on: KM12 colon
KM20L2 colon = tested on: KM20L2 colon
LOX IMVI melanoma = tested on: LOX IMVI melanoma
M19-MEL melanoma = tested on: M19-MEL melanoma
MALME-3M melanoma = tested on: MALME-3M melanoma
MOLT-4 leukemia = tested on: MOLT-4 leukemia
NCI-H23 lung = tested on: NCI-H23 lung
NCI-H460 lung = tested on: NCI-H460 lung
NCI-H522 lung = tested on: NCI-H522 lung
OVCAR-3 ovarian = tested on: OVCAR-3 ovarian
OVCAR-5 ovarian = tested on: OVCAR-5 ovarian
OVCAR-8 ovarian = tested on: OVCAR-8 ovarian
RPMI-8226 leukemia = tested on: RPMI-8226 leukemia
RXF 393 renal = tested on: RXF 393 renal
RXF-631 renal = tested on: RXF-631 renal
SF-268 CNS = tested on: SF-268 CNS
SF-295 CNS = tested on: SF-295 CNS
SF-539 CNS = tested on: SF-539 CNS
SK-MEL-2 melanoma = tested on: SK-MEL-2 melanoma
SK-MEL-28 melanoma = tested on: SK-MEL-28 melanoma
SK-MEL-5 melanoma = tested on: SK-MEL-5 melanoma
SK-OV-3 ovarian = tested on: SK-OV-3 ovarian
SN12C renal = tested on: SN12C renal
SNB-19 CNS = tested on: SNB-19 CNS
SNB-75 CNS = tested on: SNB-75 CNS
SNB-78 CNS = tested on: SNB-78 CNS
SW-620 colon = tested on: SW-620 colon
TK-10 renal = tested on: TK-10 renal
U251 CNS = tested on: U251 CNS
UACC-257 melanoma = tested on: UACC-257 melanoma
UACC-62 melanoma = tested on: UACC-62 melanoma
UO-31 renal = tested on: UO-31 renal
HCT-116 colon = tested on: HCT-116 colon
LXFL 529 NSCLC = tested on: LXFL 529 NSCLC
M14 melanoma = tested on: M14 melanoma
NCI-H226 lung = tested on: NCI-H226 lung
OVCAR-4 ovarian = tested on: OVCAR-4 ovarian
SR leukemia = tested on: SR leukemia

Q: How did the TGI (786-0 renal) turn out when `Cc1nc(-n2nc(-c3ccccc3)cc2-c2ccccc2)sc1C(=O)/C=C/c1ccccc1` was run?
A: > 100 µM

Q: And the TGI (A498 renal)?
A: > 100 µM

Q: And the TGI (A549 NSCLC)?
A: > 100 µM

Q: What about the TGI (ACHN renal) of the same compound?
A: > 100 µM

Q: What about the TGI (CAKI-1 renal) of the same compound?
A: > 100 µM

Q: What about the TGI (CCRF-CEM leukemia) of the same compound?
A: > 100 µM

Q: What about the TGI (COLO 205 colon) of the same compound?
A: > 100 µM

Q: And the TGI (DLD-1 colon)?
A: > 100 µM

Q: What about the TGI (DMS 273 small cell lung) of the same compound?
A: > 100 µM

Q: What about the TGI (EKVX NSCLC) of the same compound?
A: > 100 µM

Q: And the TGI (HCC-2998 colon)?
A: > 100 µM

Q: What about the TGI (HCT-15 colon) of the same compound?
A: > 100 µM

Q: And the TGI (HL-60(TB) leukemia)?
A: > 100 µM

Q: And the TGI (HOP-18 NSCLC)?
A: > 100 µM

Q: What about the TGI (HOP-62 NSCLC) of the same compound?
A: > 100 µM

Q: And the TGI (HOP-92 NSCLC)?
A: > 100 µM

Q: What about the TGI (HT29 colon) of the same compound?
A: > 100 µM

Q: And the TGI (IGROV1 ovarian)?
A: > 100 µM

Q: What about the TGI (K-562 leukemia) of the same compound?
A: > 100 µM

Q: What about the TGI (KM12 colon) of the same compound?
A: > 100 µM

Q: What about the TGI (KM20L2 colon) of the same compound?
A: > 100 µM

Q: What about the TGI (LOX IMVI melanoma) of the same compound?
A: > 100 µM

Q: And the TGI (M19-MEL melanoma)?
A: > 100 µM

Q: And the TGI (MALME-3M melanoma)?
A: > 100 µM

Q: And the TGI (MOLT-4 leukemia)?
A: > 100 µM

Q: And the TGI (NCI-H23 lung)?
A: > 100 µM

Q: What about the TGI (NCI-H460 lung) of the same compound?
A: > 100 µM

Q: And the TGI (NCI-H522 lung)?
A: > 100 µM

Q: What about the TGI (OVCAR-3 ovarian) of the same compound?
A: > 100 µM

Q: And the TGI (OVCAR-5 ovarian)?
A: > 100 µM

Q: What about the TGI (OVCAR-8 ovarian) of the same compound?
A: > 100 µM

Q: What about the TGI (RPMI-8226 leukemia) of the same compound?
A: > 100 µM

Q: What about the TGI (RXF 393 renal) of the same compound?
A: > 100 µM

Q: What about the TGI (RXF-631 renal) of the same compound?
A: > 100 µM

Q: What about the TGI (SF-268 CNS) of the same compound?
A: > 100 µM

Q: What about the TGI (SF-295 CNS) of the same compound?
A: > 100 µM

Q: What about the TGI (SF-539 CNS) of the same compound?
A: > 100 µM

Q: What about the TGI (SK-MEL-2 melanoma) of the same compound?
A: > 100 µM

Q: And the TGI (SK-MEL-28 melanoma)?
A: > 100 µM

Q: And the TGI (SK-MEL-5 melanoma)?
A: > 100 µM

Q: And the TGI (SK-OV-3 ovarian)?
A: > 100 µM

Q: What about the TGI (SN12C renal) of the same compound?
A: > 100 µM

Q: And the TGI (SNB-19 CNS)?
A: > 100 µM

Q: And the TGI (SNB-75 CNS)?
A: 89.7 µM

Q: What about the TGI (SNB-78 CNS) of the same compound?
A: > 100 µM

Q: What about the TGI (SW-620 colon) of the same compound?
A: > 100 µM

Q: And the TGI (TK-10 renal)?
A: > 100 µM

Q: And the TGI (U251 CNS)?
A: > 100 µM

Q: What about the TGI (UACC-257 melanoma) of the same compound?
A: > 100 µM

Q: And the TGI (UACC-62 melanoma)?
A: > 100 µM

Q: What about the TGI (UO-31 renal) of the same compound?
A: > 100 µM

Q: For `COc1ccc(C(=O)O/N=C2/CCCCC2CN(C)C)cc1` (stereo unspecified), which TGI (786-0 renal) is on record?
A: > 100 µM

Q: And the TGI (A498 renal)?
A: > 100 µM

Q: What about the TGI (A549 NSCLC) of the same compound?
A: > 100 µM

Q: And the TGI (ACHN renal)?
A: > 100 µM

Q: And the TGI (CAKI-1 renal)?
A: > 100 µM

Q: What about the TGI (CCRF-CEM leukemia) of the same compound?
A: > 100 µM

Q: And the TGI (COLO 205 colon)?
A: > 100 µM

Q: And the TGI (DLD-1 colon)?
A: > 100 µM

Q: And the TGI (DMS 273 small cell lung)?
A: > 100 µM

Q: And the TGI (EKVX NSCLC)?
A: > 100 µM

Q: What about the TGI (HCC-2998 colon) of the same compound?
A: > 100 µM

Q: What about the TGI (HCT-116 colon) of the same compound?
A: > 100 µM

Q: What about the TGI (HCT-15 colon) of the same compound?
A: > 100 µM

Q: And the TGI (HL-60(TB) leukemia)?
A: > 100 µM

Q: What about the TGI (HOP-18 NSCLC) of the same compound?
A: > 100 µM

Q: What about the TGI (HOP-62 NSCLC) of the same compound?
A: > 100 µM

Q: And the TGI (HOP-92 NSCLC)?
A: > 100 µM

Q: What about the TGI (HT29 colon) of the same compound?
A: > 100 µM

Q: And the TGI (IGROV1 ovarian)?
A: > 100 µM

Q: And the TGI (K-562 leukemia)?
A: > 100 µM

Q: And the TGI (KM12 colon)?
A: > 100 µM

Q: What about the TGI (KM20L2 colon) of the same compound?
A: > 100 µM

Q: What about the TGI (LOX IMVI melanoma) of the same compound?
A: > 100 µM

Q: What about the TGI (LXFL 529 NSCLC) of the same compound?
A: > 100 µM

Q: And the TGI (M14 melanoma)?
A: > 100 µM

Q: What about the TGI (M19-MEL melanoma) of the same compound?
A: > 100 µM

Q: What about the TGI (MALME-3M melanoma) of the same compound?
A: > 100 µM

Q: And the TGI (MOLT-4 leukemia)?
A: > 100 µM

Q: What about the TGI (NCI-H226 lung) of the same compound?
A: > 100 µM

Q: And the TGI (NCI-H23 lung)?
A: > 100 µM

Q: And the TGI (NCI-H460 lung)?
A: > 100 µM

Q: And the TGI (NCI-H522 lung)?
A: > 100 µM

Q: And the TGI (OVCAR-3 ovarian)?
A: > 100 µM

Q: What about the TGI (OVCAR-4 ovarian) of the same compound?
A: > 100 µM

Q: What about the TGI (OVCAR-5 ovarian) of the same compound?
A: > 100 µM

Q: And the TGI (OVCAR-8 ovarian)?
A: > 100 µM

Q: And the TGI (RPMI-8226 leukemia)?
A: > 100 µM

Q: What about the TGI (RXF 393 renal) of the same compound?
A: > 100 µM

Q: What about the TGI (RXF-631 renal) of the same compound?
A: > 100 µM

Q: What about the TGI (SF-295 CNS) of the same compound?
A: > 100 µM

Q: What about the TGI (SF-539 CNS) of the same compound?
A: > 100 µM

Q: And the TGI (SK-MEL-2 melanoma)?
A: > 100 µM

Q: What about the TGI (SK-MEL-28 melanoma) of the same compound?
A: > 100 µM

Q: What about the TGI (SK-MEL-5 melanoma) of the same compound?
A: > 100 µM

Q: And the TGI (SK-OV-3 ovarian)?
A: > 100 µM

Q: And the TGI (SN12C renal)?
A: > 100 µM

Q: And the TGI (SNB-75 CNS)?
A: > 100 µM

Q: And the TGI (SNB-78 CNS)?
A: > 100 µM

Q: And the TGI (SR leukemia)?
A: > 100 µM

Q: What about the TGI (SW-620 colon) of the same compound?
A: > 100 µM

Q: What about the TGI (TK-10 renal) of the same compound?
A: > 100 µM

Q: And the TGI (U251 CNS)?
A: > 100 µM

Q: What about the TGI (UACC-257 melanoma) of the same compound?
A: > 100 µM

Q: What about the TGI (UACC-62 melanoma) of the same compound?
A: > 100 µM

Q: What about the TGI (UO-31 renal) of the same compound?
A: > 100 µM
